# From patent US20090093423A2, “NOVEL 2-SUBSTITUTED METHYL PENAM DERIVATIVES” (Orchid Chemicals and Pharmaceuticals Limited, priority 2006, published 2009)
# Tests used:
# K. pneumoniae MRO 11008 [1] = assay: In vivo efficacy, infected mice
# Method: (§1) The efficacy studies were performed as described earlier (Kuck et al, 1989, Antimicrob. Agents. Chemother. 33(11): 1964-1969). Briefly, Swiss albino mice, 20+2 g, from in-house breeding facility were challenged by the intraperitoneal injection of bacterial suspensions in 0.5 mL of hog gastric mucin (10 to 100 50% lethal doses). […] All the untreated control animals died within 48 h of infection. In each experiment, in-house Tazo was used as an inhibitor control in four doses. Median (50%) effective dose (ED50) were determined by applying the Reed and Muench's method of the 7-day survival ratios.
# E. coli MRO 10007 = assay: In vivo efficacy, infected mice; settings: Swiss albino mice infected with E. coli MRO 10007; Piperacillin:inhibitor 4:1; 7-day survival
# Method: as §1
# E. coli MRO 10006 = assay: In vivo efficacy, infected mice; settings: Swiss albino mice infected with E. coli MRO 10006; Piperacillin:inhibitor 4:1; 7-day survival
# Method: as §1
# [2] = test system: ESBL producing E. coli strains; assay: In vivo efficacy, infected mice
# Method: as §1
# [3] = Possibility of conversion of Example 1 to Tazo, LC-MS/MS of plasma; format: in vivo; settings: Swiss mice, 8 mg/kg along with Piperacillin (32 mg/kg)
# Method: Blood samples were collected at different time points. These samples were processed and analyzed by LC-MS/MS, which has the capability of simultaneously detecting even the lower concentration of Tazo (20 ng/mL) and the compound obtained from Example 1 (10 ng/mL).
# [4] = test system: K. pneumoniae 51503 (TEM-10 & -12); assay: MIC, Agar Dilution Method, ESBL producing ATCC isolate; format: cell-based; settings: inhibitor 4 μg/mL
# Method: (§2) The novel compounds were tested for the in vitro antibacterial activities by the Agar Dilution Method as specified in documents published by NCCLS, now CLSI, USA. (National Committee for Clinical Laboratory Standards (NCCLS). 2003. Approved standard M7-A6. NCCLS, Villanova, Pa.).
# (§3) Tazo was also dissolved in same buffer to get a solution of, e.g., 1 mg/mL. Novel penam derivatives described herein were dissolved in water to get a solution of, e.g., 1 mg/mL.
# (§4) The novel compounds and Tazo were also tested individually. The bacterial inoculum was prepared by picking 3 to 5 well-isolated bacterial colonies with the same morphological appearance from an 18-24 h old culture and adjusting the turbidity of the saline suspension to 0.5 McFarland Turbidity Standard equivalent to a bacterial population of 1.5×10^8 colony forming units (CFU) per mL of suspension. The suspension was diluted 1:10 in saline (i.e. 0.5 mL suspension+4.5 mL saline) to get a bacterial population of 1.5×10^7 CFU/mL as inoculum. […] The inoculated petridishes were incubated at 35° C. in an ambient atmosphere for 16-20 h.
# E. coli BAA-197 (TEM-12) = assay: as above; format: cell-based; settings: inhibitor 4 μg/mL
# Method: as §2, §3, §4
# E. coli BAA-202 (SHV-1) = assay: as above; format: cell-based
# Method: as §2, §3, §4
# E. coli BAA-200 (SHV-4) = assay: as above; format: cell-based; settings: for potentiation of Piperacillin compared to Tazo: SHV-4 ESBL producing strain
# Method: as §2, §3, §4
# E. coli BAA-201 (TEM-3) = assay: as above; format: cell-based
# Method: as §2, §3, §4
# E. coli BAA-196 (TEM-10) = assay: as above; format: cell-based; settings: inhibitor 4 μg/mL
# Method: as §2, §3, §4
# [5] = test system: P. mirabilis BAA-663 (TEM-89); assay: as above; format: cell-based
# Method: as §2, §3, §4
# E. coli BAA-198 (TEM-26) = assay: as above; format: cell-based
# Method: as §2, §3, §4
# E. coli BAA-199 (SHV-3) = assay: as above; format: cell-based
# Method: as §2, §3, §4
# Penicillinase enzyme = assay: β-Lactamase assay (Centa substrate); format: biochemical; settings: FIG. 1
# Method: Representative novel compounds were subjected to β-lactamase assay to determine and compare their IC50 with that of Tazo as described elsewhere (Bebrone et. al, 2001, Antimicrob. Agents. Chemother. 45(6): 1868-1871; Jamieson et. al, 2003, Antimicrob. Agents. Chemother. 47(5): 1652-1657). Briefly enzyme inhibition assays with Tazo acid as the standard inhibitor for % inhibitions & IC50 value with optimized concentrations of Penicillinase enzyme & Centa β-lactamase substrate were performed.
# [6] = Intravenous pharmacokinetics in mice; format: in vivo, Swiss mice
# Description: Blood samples were collected at different time points. These samples were processed and analyzed by HPLC.
# A. baumani MRO 14515 = assay: MIC, Agar Dilution Method, resistant clinical isolate; format: cell-based; settings: Pip + 4 μg/mL inhibitor
# Method: as §2, §3, §4
# A. baumani MRO 14514 = assay: as above; format: cell-based; settings: Pip + 4 μg/mL inhibitor
# Method: as §2, §3, §4
# A. baumani MRO 14512 = assay: as above; format: cell-based; settings: Pip + 4 μg/mL inhibitor
# Method: as §2, §3, §4
# E. coli MRO 10135 = assay: as above; format: cell-based; settings: Pip + 4 μg/mL inhibitor
# Method: as §2, §3, §4
# [7] = test system: strains resistant to Ceftazidime, Ciprofloxacin, and Piperacillin/Tazo combination; assay: MIC, Agar Dilution Method, resistant panel; format: cell-based
# Method: as §2, §3, §4
# [8] = Minimum bactericidal studies, broth macrodilution; format: cell-based
# Method: Minimum bactericidal studies were performed by broth macrodilution technique as described by NCCLS.
# [9] = test system: strains producing the TEM type ESBLs (TEM-10, TEM-12 and TEM-10 and -12); assay: MIC, Agar Dilution Method, TEM panel; format: cell-based; settings: TEM-10, TEM-12 and TEM-10 and -12 strains; inhibitor 1 μg/mL and 2 μg/mL
# Method: as §2, §3, §4
# [10] = test system: K. pneumoniae ATCC 700603; assay: MIC, Agar Dilution Method; format: cell-based; settings: K. pneumoniae 700603, SHV-18
# Method: as §2, §3, §4
# K. pneumoniae MRO 11008 [11] = assay: MIC, Agar Dilution Method; format: cell-based; settings: ESBL producing K. pneumoniae strain; inhibitor 1 μg/mL
# Method: as §2, §3, §4
smiles,measurement,setting,value
"C[n+]1ccn(C[C@@]2(C)[C@H](C(=O)[O-])N3C(=O)C[C@H]3S2(=O)=O)n1 [Example 1, 1-{[(2S,3S,5R)-2-Carboxy-3-methyl-4,4,7-trioxo-4-thia-1-azabicyclo[3.2.0]hept-3-yl]methyl}-3-methyl-1H-1,2,3-triazol-3-ium]",ED50 of Piperacillin in combination with inhibitor,"K. pneumoniae MRO 11008 [1]; Swiss albino mice infected with K. pneumoniae MRO 11008, Piperacillin:inhibitor 4:1, 7-day survival",34.89 mg/kg b.w.
same,increase of efficacy of Piperacillin,"K. pneumoniae MRO 11008 [1]; mice, ESBL producing K. pneumoniae strain resistant in vitro to Piperacillin with 1 μg/mL Tazo",three-fold
same,ED50 of Piperacillin in combination with inhibitor,E. coli MRO 10007,24.88 mg/kg b.w.
same,ED50 of Piperacillin in combination with inhibitor,E. coli MRO 10006,22.62 mg/kg b.w.
same,"ED50 of Piperacillin in combination, compared to that in combination with Tazo",[2],two-fold lower
same,conversion to Tazo after intravenous administration (LC-MS/MS of plasma),[3],did not get converted to Tazo
same,MIC of Piperacillin with different concentrations of Tazo or compound of Example 1,[4],8 µg/mL
same,MIC of Piperacillin with different concentrations of Tazo or compound of Example 1,E. coli BAA-197 (TEM-12),4 µg/mL
same,MIC of Piperacillin with different concentrations of Tazo or compound of Example 1,E. coli BAA-202 (SHV-1); inhibitor 1 μg/mL,>128 µg/mL
same,MIC of Piperacillin with different concentrations of Tazo or compound of Example 1,E. coli BAA-202 (SHV-1); inhibitor 2 μg/mL,>128 µg/mL
same,MIC of Piperacillin with different concentrations of Tazo or compound of Example 1,E. coli BAA-202 (SHV-1); inhibitor 4 μg/mL,>128 µg/mL
same,MIC of Piperacillin with different concentrations of Tazo or compound of Example 1,"E. coli BAA-200 (SHV-4); E. coli BAA-200, SHV-4, inhibitor 4 μg/mL",2 µg/mL
same,potentiation of Piperacillin compared to Tazo,E. coli BAA-200 (SHV-4); inhibitor 1 μg/mL,> 16 fold
same,potentiation of Piperacillin compared to Tazo,E. coli BAA-200 (SHV-4); inhibitor 2 μg/mL,> 32 fold
same,MIC of Piperacillin with different concentrations of Tazo or compound of Example 1,E. coli BAA-201 (TEM-3); inhibitor 1 μg/mL,4 µg/mL
same,MIC of Piperacillin with different concentrations of Tazo or compound of Example 1,E. coli BAA-201 (TEM-3); inhibitor 2 μg/mL,2 µg/mL
same,MIC of Piperacillin with different concentrations of Tazo or compound of Example 1,E. coli BAA-201 (TEM-3); inhibitor 4 μg/mL,2 µg/mL
same,MIC of Piperacillin with different concentrations of Tazo or compound of Example 1,E. coli BAA-196 (TEM-10),4 µg/mL
same,MIC of Piperacillin with different concentrations of Tazo or compound of Example 1,[5]; inhibitor 1 μg/mL,16 µg/mL
same,MIC of Piperacillin with different concentrations of Tazo or compound of Example 1,[5]; inhibitor 2 μg/mL,8 µg/mL
same,MIC of Piperacillin with different concentrations of Tazo or compound of Example 1,[5]; inhibitor 4 μg/mL,8 µg/mL
same,MIC of Piperacillin with different concentrations of Tazo or compound of Example 1,E. coli BAA-198 (TEM-26); inhibitor 1 μg/mL,4 µg/mL
same,MIC of Piperacillin with different concentrations of Tazo or compound of Example 1,E. coli BAA-198 (TEM-26); inhibitor 2 μg/mL,4 µg/mL
same,MIC of Piperacillin with different concentrations of Tazo or compound of Example 1,E. coli BAA-198 (TEM-26); inhibitor 4 μg/mL,2 µg/mL
same,potentiation of Piperacillin compared to Tazo,"E. coli BAA-199 (SHV-3); SHV-3 ESBL producing strain, inhibitor 1 μg/mL",> 16 fold
same,potentiation of Piperacillin compared to Tazo,"E. coli BAA-199 (SHV-3); SHV-3 ESBL producing strain, inhibitor 2 μg/mL",> 32 fold
same,potentiation of Piperacillin compared to Tazo (in words),"E. coli BAA-199 (SHV-3); SHV-3 producing strain as printed (second mention), inhibitor 4 μg/mL",comparable with Tazo
same,potentiation of Piperacillin compared to Tazo,"E. coli BAA-199 (SHV-3); SHV-3 producing strain, inhibitor 4 μg/mL",> 64 fold
same,IC50 compared with Tazo,Penicillinase enzyme,three-fold lower
same,C0,"[6]; Swiss, mouse, in vivo, iv, 8 mg/kg",15200 ng/mL
same,AUC(0-t),"[6]; Swiss, mouse, in vivo, iv, 8 mg/kg, read-out: AUC0-4 h",5370 ng·h/mL
same,AUC,"[6]; Swiss, mouse, in vivo, iv, 8 mg/kg, read-out: AUC0-∝",5830 ng·h/mL
same,half-life,"[6]; Swiss, mouse, in vivo, iv, 8 mg/kg, read-out: Elimination half-life (converted)",16.3 min
same,systemic exposure,"[6]; mice, intravenous, compared with Tazo",higher than that of Tazo
same,MIC of Piperacillin in combination with 4 μg/mL inhibitor,A. baumani MRO 14515,32 µg/mL
same,MIC of Piperacillin in combination with 4 μg/mL inhibitor,A. baumani MRO 14514,32 µg/mL
same,MIC of Piperacillin in combination with 4 μg/mL inhibitor,A. baumani MRO 14512,4 µg/mL
same,MIC of Piperacillin in combination with 4 μg/mL inhibitor,E. coli MRO 10135,16 µg/mL
same,potentiated the antibacterial activity of Piperacillin compared to that of Tazo,"[7]; inhibitor 4 μg/mL, strains resistant to Ceftazidime and Ciprofloxacin",2-16 fold
same,susceptibility of resistant strains to Piperacillin in combination,"[7]; strains resistant to Ceftazidime, Ciprofloxacin, and Piperacillin/Tazo combination",susceptible
same,"Minimum bactericidal concentration study, Piperacillin in combination with inhibitor",[8],bacteriostatic
same,potentiation of Piperacillin compared to Tazo,[9],2-16 fold
same,MIC of Piperacillin with different concentrations of Tazo or compound of Example 1,[10]; inhibitor 2 μg/mL,16 µg/mL
same,MIC of Piperacillin with different concentrations of Tazo or compound of Example 1,[10]; inhibitor 4 μg/mL,16 µg/mL
same,in vitro potentiation of Piperacillin,K. pneumoniae MRO 11008 [11],16 fold
